Laboratory results: patent US20210330611A1, “THERAPY FOR NEUROLOGICAL DISEASES/DISORDERS” (priority 2020, published 2021)
Counter-ions that a name gives are not always drawn. Like-named read-outs stand apart in the source and are kept apart here. Where no end group is shown, it is not given here.

Tests used:
[1] = system: fibrin-induced microglia activation; test: Image-based assay of fibrin-induced microglia activation (HTS and dose response); format: cell-based, rat; settings: for inhibition at 10 µM: Rattus norvegicus, Microglia, read-out: Fibrin % inhibition
[2] = system: fibrin- and LPS-induced microglia activation; test: cells; format: cell-based, rat
[3] = system: LPS-induced microglia activation; test: Image-based assay of LPS-induced microglia activation (HTS and dose response); format: cell-based, rat; settings: for inhibition at 10 µM: Rattus norvegicus, Microglia, read-out: LPS % inhibition
[4] = system: primary rat microglia; test: Cell toxicity (dead cells, size <150 μm2) in LPS assay
[5] = system: primary rat microglia; test: Cell toxicity (dead cells, size <150 μm2) in coated fibrin (cFib) assay;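 also: share of dead cells sized under 150 µm2 at 10 µM in fibrin-stimulated microglia HTS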
[6] = primary microglia HTS, fibrin stimulation, increased cell size (>800 μm^2) as marker of activation
[7] = quadrant by fibrin and LPS inhibition in HTS of 1907 compounds
[8] = 48 h, primary microglia HTS, LPS stimulation, increased cell size (>800 μm^2) as marker of activation
[9] = primary microglia HTS, LPS stimulation, decreased size (<150 μm^2) as marker of toxicity
[10] = primary microglia HTS, fibrin stimulation, decreased size (<150 μm^2) as marker of toxicity
[11] = primary HTS, 10 μM, fibrin-stimulated primary microglia
[12] = primary HTS, 10 μM, LPS-stimulated primary microglia
[13] = primary HTS, 10 μM, LPS assay, dead cells size <150 μm2
[14] = primary HTS, 10 μM, fibrin assay, dead cells size <150 μm2
[15] = primary microglia HTS, fibrin stimulation, activation = cell size >800 μm2
[16] = 48 h, primary microglia HTS, LPS stimulation, activation = cell size >800 μm2
[17] = primary microglia HTS, LPS stimulation, toxicity = cell size <150 μm2
[18] = primary microglia HTS, fibrin stimulation, toxicity = cell size <150 μm2
[19] = primary microglia HTS, 10 μM, fibrin-stimulated, cell size >800 μm^2 as marker of activation
[20] = HTS of 1907 compounds, quadrant by fibrin and LPS inhibition
[21] = primary microglia HTS, 10 μM, LPS-stimulated, cell size >800 μm^2 as marker of activation
[22] = primary microglia HTS, 10 μM, LPS assay, cell size <150 μm^2 as marker of toxicity
[23] = primary microglia HTS, 10 μM, fibrin assay, cell size <150 μm^2 as marker of toxicity

CN1C[C@H](CNC(=O)OCc2ccccc2)C[C@@H]2c3cccc4c3c(cn4C)C[C@H]21 [Metergoline]
inhibition at 10 µM [1, 6]: -12% | Quadrant (FIG. 5b) [2, 7]: Q4 | inhibition at 10 µM [3, 8]: 16% | LPS % cell toxicity [4, 9]: 0% | Fibrin % cell toxicity [5, 10]: 1%

Nc1ncnc(Nc2ccc(Cl)cc2)n1 [Chlorazanil Hydrochloride]
inhibition at 10 µM [1, 11]: 0% | Quadrant (FIG. 5b) ([2]; primary HTS, 10 μM): Q4 | inhibition at 10 µM [3, 12]: 3% | LPS % cell toxicity [4, 13]: 0% | Fibrin % cell toxicity [5, 14]: 1%

O=C1OC(CN2CCOCC2)CN1/N=C/c1ccc([N+](=O)[O-])o1 (stereo not shown) [Furaltadone]
inhibition at 10 µM [1, 15]: -60% | Quadrant (FIG. 5b) [2, 7]: Q4 | inhibition at 10 µM [3, 16]: 0% | LPS % cell toxicity [4, 17]: 0% | Fibrin % cell toxicity [5, 18]: 1%

CN1C(C(=O)Nc2ccccn2)=C(O)c2sc(Cl)cc2S1(=O)=O [Lornoxicam]
inhibition at 10 µM [1, 6]: 22% | Quadrant (FIG. 5b) [2, 7]: Q4 | inhibition at 10 µM [3, 8]: 10% | LPS % cell toxicity [4, 9]: 1% | Fibrin % cell toxicity [5, 10]: 0%

C[C@]12CCC(=O)C=C1CC[C@@H]1[C@@H]2CC[C@@]2(C)[C@H]1CC[C@]2(C)O [Methyltestosterone]
inhibition at 10 µM [1, 6]: -40% | Quadrant (FIG. 5b) [2, 7]: Q4 | inhibition at 10 µM [3, 8]: -2% | LPS % cell toxicity [4, 9]: 0% | Fibrin % cell toxicity [5, 10]: 1%

O=C1C2CC3CC1CC(O)(C3)C2 [Idramantone]
inhibition at 10 µM [1, 15]: -7% | Quadrant (FIG. 5b) [2, 7]: Q4 | inhibition at 10 µM [3, 16]: 8% | LPS % cell toxicity [4, 17]: 0% | Fibrin % cell toxicity [5, 18]: 1%

RKDVY [Thymopentin]
Fibrin % inhibition [1, 19]: −20% | Quadrant (FIG. 5b) [2, 20]: Q4 | LPS % inhibition [3, 21]: 20% | LPS % cell toxicity [4, 22]: 0% | Fibrin % cell toxicity [5, 23]: 1%

Cc1ccccc1N1C(=O)c2cc(S(N)(=O)=O)c(Cl)cc2NC1C (stereo not shown) [Metolazone]
inhibition at 10 µM [1, 6]: -2% | Quadrant (FIG. 5b) [2, 7]: Q4 | inhibition at 10 µM [3, 8]: 19% | LPS % cell toxicity [4, 9]: 0% | Fibrin % cell toxicity [5, 10]: 1%

Oc1cc(Cl)ccc1Oc1ccc(Cl)cc1Cl [Triclosan]
inhibition at 10 µM [1, 19]: -6% | Quadrant (FIG. 5b) [2, 20]: Q4 | inhibition at 10 µM [3, 21]: 16% | LPS % cell toxicity [4, 22]: 1% | Fibrin % cell toxicity [5, 23]: 1%

CCS(=O)(=O)CCn1c([N+](=O)[O-])cnc1C [Tinidazole]
inhibition at 10 µM [1, 19]: 2% | Quadrant (FIG. 5b) [2, 20]: Q4 | inhibition at 10 µM [3, 21]: 14% | LPS % cell toxicity [4, 22]: 1% | Fibrin % cell toxicity [5, 23]: 0%

Cc1c(Nc2ncccc2C(=O)O)cccc1C(F)(F)F [Flunixin Meglumine]
inhibition at 10 µM [1, 15]: -6% | Quadrant (FIG. 5b) [2, 7]: Q4 | inhibition at 10 µM [3, 16]: 8% | LPS % cell toxicity [4, 17]: 0% | Fibrin % cell toxicity [5, 18]: 1%

COc1ccc(C(=O)NCc2ccc(OCCN(C)C)cc2)cc1OC [Itopride, Itopride Hydrochloride]
Fibrin % inhibition [1, 15]: −49% | Quadrant (FIG. 5b) [2, 7]: Q4 | LPS % inhibition ([3]; primary microglia HTS, LPS stimulation, activation = cell size >800 μm2): 25% | LPS % cell toxicity [4, 17]: 0% | Fibrin % cell toxicity [5, 18]: 0%

CC[C@H](C)[C@H](N)C(=O)O [L-Isoleucine]
inhibition at 10 µM [1, 15]: -35% | Quadrant (FIG. 5b) [2, 7]: Q4 | inhibition at 10 µM [3, 16]: 17% | LPS % cell toxicity [4, 17]: 0% | Fibrin % cell toxicity [5, 18]: 0%

CC(S)C(=O)NCC(=O)O (stereo not shown) [Tiopronin]
inhibition at 10 µM [1, 19]: -8% | Quadrant (FIG. 5b) [2, 20]: Q4 | inhibition at 10 µM [3, 21]: 6% | LPS % cell toxicity [4, 22]: 0% | Fibrin % cell toxicity [5, 23]: 1%

COc1cc(C(=O)N2CCOCC2)cc(OC)c1OC [Trimetozine]
inhibition at 10 µM [1, 19]: 2% | Quadrant (FIG. 5b) [2, 20]: Q4 | inhibition at 10 µM [3, 21]: 12% | LPS % cell toxicity [4, 22]: 0% | Fibrin % cell toxicity [5, 23]: 1%

CCCCCCNC(=O)n1cc(F)c(=O)[nH]c1=O [Carmofur]
inhibition at 10 µM [1, 11]: -13% | Quadrant (FIG. 5b) ([2]; primary HTS, 10 μM): Q4 | inhibition at 10 µM [3, 12]: 17% | LPS % cell toxicity [4, 13]: 0% | Fibrin % cell toxicity [5, 14]: 0%

Cc1cccc(C)c1NC(=O)C(C)N (stereo not shown) [Tocainide]
inhibition at 10 µM [1, 19]: -25% | Quadrant (FIG. 5b) [2, 20]: Q4 | inhibition at 10 µM [3, 21]: 0% | LPS % cell toxicity [4, 22]: 0% | Fibrin % cell toxicity [5, 23]: 1%

CCCCC[C@H](O)/C=C/[C@H]1[C@H](O)CC(=O)[C@@H]1C/C=C\CCCC(=O)O [Dinoprostone]
inhibition at 10 µM [1, 6]: 102% | Quadrant (FIG. 5b) [2, 7]: Q2 | inhibition at 10 µM [3, 8]: 85% | LPS % cell toxicity [4, 9]: 2% | Fibrin % cell toxicity [5, 10]: 9%

Nc1nc2c(c(=O)[nH]1)N(C=O)C(CNc1ccc(C(=O)N[C@@H](CCC(=O)O)C(=O)O)cc1)CN2 (stereo partly shown) [Leucovorin]
inhibition at 10 µM [1, 15]: -29% | Quadrant (FIG. 5b) [2, 7]: Q4 | inhibition at 10 µM [3, 16]: 8% | LPS % cell toxicity [4, 17]: 0% | Fibrin % cell toxicity [5, 18]: 1%

CC/C=C\C/C=C\C/C=C\C/C=C\C/C=C\CCCC(=O)OCC [Icosapent ethyl]
inhibition at 10 µM [1, 15]: -13% | Quadrant (FIG. 5b) [2, 7]: Q4 | inhibition at 10 µM [3, 16]: 1% | LPS % cell toxicity [4, 17]: 0% | Fibrin % cell toxicity [5, 18]: 0%

CCCc1nc(C(C)(C)O)c(C(=O)OCc2oc(=O)oc2C)n1Cc1ccc(-c2ccccc2-c2nnn[nH]2)cc1 [Olmesartan Medoxomil]
inhibition at 10 µM [1, 6]: -5% | Quadrant (FIG. 5b) [2, 7]: Q4 | inhibition at 10 µM [3, 8]: 12% | LPS % cell toxicity [4, 9]: 0% | Fibrin % cell toxicity [5, 10]: 1%

COc1ccc(CN2CCNCC2)c(OC)c1OC [Trimetazidine]
inhibition at 10 µM [1, 19]: -18% | Quadrant (FIG. 5b) [2, 20]: Q4 | inhibition at 10 µM [3, 21]: 1% | LPS % cell toxicity [4, 22]: 0% | Fibrin % cell toxicity [5, 23]: 1%

CC(=O)O[C@H]1C[C@@H]2CC[C@@H]3[C@H](CC[C@@]4(C)[C@H]3C[C@H]([N+]3(C)CCCCC3)[C@@H]4OC(C)=O)[C@@]2(C)C[C@@H]1N1CCCCC1 [Vecuronium]
Fibrin % inhibition [1, 19]: −24% | Quadrant (FIG. 5b) [2, 20]: Q4 | LPS % inhibition [3, 21]: 0% | LPS % cell toxicity [4, 22]: 1% | Fibrin % cell toxicity [5, 23]: 1%

[O-][n+]1cccc(CO)c1 [Mepiroxol]
Fibrin % inhibition [1, 6]: −6% | Quadrant (FIG. 5b) [2, 7]: Q4 | LPS % inhibition ([3]; primary microglia HTS, LPS stimulation, increased cell size (>800 μm^2) as marker of activation): 11% | LPS % cell toxicity [4, 9]: 0% | Fibrin % cell toxicity [5, 10]: 1%

COc1ccc(C(=O)c2ccccc2)c(O)c1 [Oxybenzone]
inhibition at 10 µM [1, 6]: -15% | Quadrant (FIG. 5b) [2, 7]: Q4 | inhibition at 10 µM [3, 8]: 12% | LPS % cell toxicity [4, 9]: 0% | Fibrin % cell toxicity [5, 10]: 0%

CC(C)(Oc1ccc(Cl)cc1)C(=O)O [Clofibric Acid]
inhibition at 10 µM [1, 11]: -27% | Quadrant (FIG. 5b) ([2]; primary HTS, 10 μM): Q4 | inhibition at 10 µM [3, 12]: 15% | LPS % cell toxicity [4, 13]: 0% | Fibrin % cell toxicity [5, 14]: 1%
